Literature values as cited in US5691376A, “Substituted biphenyl derivatives” (American Home Products Corporation, priority 1996, dated 1997).

Legend:
murine T-cell = details: Strauch 1989; cited from earlier work
[1] = tested on: humoral (IgE-like) antibodies; details: albumin allergic challenge; Martel 1977; cited from earlier work

CO[C@H]1C[C@@H]2CC[C@@H](C)[C@@](O)(O2)C(=O)C(=O)N2CCCC[C@H]2C(=O)O[C@H]([C@H](C)C[C@@H]2CC[C@@H](O)[C@H](OC)C2)CC(=O)[C@H](C)/C=C(\C)[C@@H](O)[C@@H](OC)C(=O)[C@H](C)C[C@H](C)/C=C/C=C/C=C/1C [Rapamycin]
inhibition of T-cell activation (murine T-cell): inhibit murine T-cell activation | prevention of formation of humoral (IgE-like) antibodies [1]: prevent the formation of humoral (IgE-like) antibodies in response to an albumin allergic challenge
